In US20110173718A1, “HERBICIDE TOLERANT PLANTS” (SYNGENTA CROP PROTECTION, INC., priority 2008, published 2011):

How the values were obtained:
Assay type in all cases: in vivo
[1] = system: tobacco plants expressing Wheat HPPD; experiment: Glasshouse spray test, wheat HPPD transgenic tobacco; conditions: Wheat HPPD T1
From the text: Transgenic lines of tobacco, soyabean and corn etc. can be engineered to express various heterologous HPPDs derived from, for example Avena (SEQ ID #26), Wheat (SEQ ID #27), Pseudomonas fluorescens (SEQ ID # 25) and Shewanella colwelliana (SEQ ID #28) as, for example, described in WO 02/46387.
Single copy events amongst the T1 plant lines are identified by their 3:1 segregation ratio (wrt kanamycin and or herbicide) and by quantitative RT-PCR. Seed from the thus selected T1 tobacco (var Samsun) lines are sown in 3 inch diameter pots containing 50% peat, 50% John Innes soil no 3. After growth to the 3 leaf stage, plants are sprayed, as described above, in order to test for herbicide tolerance relative to like-treated non-transgenic tobacco plants. […]
Exactly as described in example 5 of WO 02/46387 the wheat HPPD gene sequence (Embl DD064495) is cloned behind an Arabidopsis Rubisco small subunit (SSU) promoter and in front of a nos gene terminator to produce an SSU Wheat HPPD nos expression cassette' which is cloned into a binary vector and transformed into tobacco to produce a population of 30-50 transgenic events.

[2] = system: wild-type (WT) Samsun tobacco; experiment: Glasshouse spray test, wild-type tobacco; conditions: for % damage observed 16 DAT: w/t tobacco; for score on a scale from 0 to 10 (0 substantially bleached/burnt, meristem dead/white; 10 entire plant green and undamaged): 500 g/ha, 11 DAT
How it was run: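 Wild-type Samsun tobacco grown from seed was planted in 3 inch pots, grown on under glasshouse conditions (about 24-27° C. day, 18-21° C. night, ~14 h photoperiod, ~65% humidity) and spray-treated alongside transgenic lines. Test chemicals were formulated in water with 0.2% X77 surfactant and applied by track sprayer at 200 l/ha. Height reduction, bleaching and damage were scored against unsprayed control plants of like size.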

weeds = experiment: Glasshouse weed control, HST inhibitors alone and with A22, post-emergence; conditions: 14 DAT, single replicate
How it was run: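 Weeds grown in glasshouse trays (24-27 C day, 18-21 C night, ~15 h photoperiod) and track-sprayed in 0.2% X77 at […], pre-emergence or post-emergence at about 7-12 d. HPPD inhibitor A22 applied at 2 g/ha alone or mixed with HST herbicides. Damage scored 0–100% at 14 DAT; synergy calculated by Colby formula.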

**Q.** Which “% damage observed 16 DAT” value ([1]; 37 g/ha) does the source give for `O=c1c(-c2c(F)ccc(F)c2Cl)c(O)c2nccnc2n1CC(F)F` [Compound 2.3] here?
**A.** Its value is 0%.

**Q.** And the “% damage observed 16 DAT” value ([1]; 111 g/ha)?
**A.** The value was 0%.

**Q.** And the “% damage observed 16 DAT” value ([1]; 333 g/ha)?
**A.** Its value is 3%.

**Q.** And the “% damage observed 16 DAT” value ([1]; 1000 g/ha)?
**A.** Its value is 8%.

**Q.** And the “% damage observed 16 DAT” value ([2]; 37 g/ha)?
**A.** Its value is 17%.

**Q.** What about the “% damage observed 16 DAT” value ([2]; 111 g/ha) of the same compound?
**A.** Its value is 40%.

**Q.** And the “% damage observed 16 DAT” value ([2]; 333 g/ha)?
**A.** Its value is 47%.

**Q.** And the “score on a scale from 0 to 10 (0 substantially bleached/burnt, meristem dead/white; 10 entire plant green and undamaged)” value ([2]; W/T_SD)?
**A.** Its value is 0.

**Q.** And the “score on a scale from 0 to 10 (0 substantially bleached/burnt, meristem dead/white; 10 entire plant green and undamaged)” value ([2]; W/T_TC)?
**A.** Its value is 0.

**Q.** What about the “% damage observed 16 DAT” value ([2]; 1000 g/ha) of the same compound?
**A.** The value was 57%.

**Q.** And the “% control score, Obs” value (weeds; BRAPL, 15.625 g/ha alone)?
**A.** The value was 20%.

**Q.** What about the “% control score, Obs” value (weeds; BRAPL, 62.5 g/ha alone) of the same compound?
**A.** The value was 50%.

**Q.** What about the “% control score, Obs” value (weeds; BRAPL, 250 g/ha alone) of the same compound?
**A.** The value was 70%.

**Q.** What about the “% control score, Obs” value (weeds; DIGSA, 15.625 g/ha alone) of the same compound?
**A.** Its value is 2%.

**Q.** And the “% control score, Obs” value (weeds; DIGSA, 62.5 g/ha alone)?
**A.** The value was 35%.

**Q.** What about the “% control score, Obs” value (weeds; DIGSA, 250 g/ha alone) of the same compound?
**A.** The value was 45%.

**Q.** And the “% control score, Obs” value (weeds; ECHCG, 15.625 g/ha alone)?
**A.** The value was 5%.

**Q.** And the “% control score, Obs” value (weeds; ECHCG, 62.5 g/ha alone)?
**A.** The value was 30%.

**Q.** What about the “% control score, Obs” value (weeds; ECHCG, 250 g/ha alone) of the same compound?
**A.** The value was 40%.

**Q.** What about the “% control score, Obs” value (weeds; PANMI, 15.625 g/ha alone) of the same compound?
**A.** Its value is 2%.

**Q.** What about the “% control score, Obs” value (weeds; PANMI, 62.5 g/ha alone) of the same compound?
**A.** Its value is 55%.

**Q.** And the “% control score, Obs” value (weeds; PANMI, 250 g/ha alone)?
**A.** The value was 65%.

**Q.** And the “% control score, Obs” value (weeds; SETFA, 15.625 g/ha alone)?
**A.** The value was 5%.

**Q.** What about the “% control score, Obs” value (weeds; SETFA, 62.5 g/ha alone) of the same compound?
**A.** Its value is 40%.

**Q.** What about the “% control score, Obs” value (weeds; SETFA, 250 g/ha alone) of the same compound?
**A.** Its value is 60%.

**Q.** And the “% control score, Obs” value (weeds; SIDSP, 15.625 g/ha alone)?
**A.** The value was 10%.

**Q.** And the “% control score, Obs” value (weeds; SIDSP, 62.5 g/ha alone)?
**A.** Its value is 40%.

**Q.** What about the “% control score, Obs” value (weeds; SIDSP, 250 g/ha alone) of the same compound?
**A.** Its value is 55%.
